Columns and labels:
HCV genotype 1b replicon = assay: HCV replicon assay (Zluc luciferase reporter); format: cell-based; conditions: Hepatitis C virus, 72 h, read-out: HCV Replicon EC50
Protocol: Huh-7-derived cell line (Zluc) that harbors an HCV genotype 1b replicon and a luciferase reporter gene was grown in Dulbecco's Modified Eagle Medium (DMEM) supplemented with 10% fetal bovine serum, 2 mM GlutaMAX, 1% MEM nonessential amino acids, 100 IU/mL penicillin, 100 μg/mL streptomycin, and 0.5 mg/mL Geneticin® (G418). For dose response testing the cells were seeded in 96-well plates at 7.5×10^3 cells per well in a volume of 50 μL, and incubated at 37° C./5% CO2. Drug solutions were made up freshly in Huh-7 media as 2× stocks. Ten additional 5-fold dilutions were prepared from these stocks in DMEM without G418. At least three hours after Zluc cells were seeded, drug treatment was initiated by adding 50 μL of drug dilutions to the plates in duplicate. Final concentrations of drug ranged from 100 μM to 0.0000512 μM. Cells were then incubated at 37° C./5% CO2. Alternatively, compounds were tested at two concentrations (1 μM and 10 μM). […] After 72 hours of incubation, the inhibition of HCV replication was measured by quantification of photons emitted after mono-oxygenation of 5′-fluoroluciferin to oxyfluoroluciferin by firefly luciferase. For this, media was removed from the plates via gentle tapping. Fifty microliters of ONE-glo luciferase assay reagent was added to each well. The plates were shaken gently for 3 min at room temperature and luminescence was measured on a Victor^3 V 1420 multilabel counter (Perkin Elmer) with a 1 second read time using a 700 nm cut-off filter. The EC50 values were calculated from dose response curves from the resulting best-fit equations determined by Microsoft Excel and XLfit 4.1 software. When screening at two fixed concentrations, the results were expressed as % inhibition at 1 μM and 10 μM.

[1] = Cytotoxicity evaluation, CellTiter-Blue Cell Viability Assay; conditions: human

CC(C)OC(=O)[C@@H](C)NP(=S)(OC[C@H]1O[C@@H](n2ccc(=O)[nH]c2=O)[C@H](O)[C@@H]1CO)Oc1ccccc1 (single isomer, unassigned) [Compound 122a Diastereomer 1] gave an EC50 (HCV genotype 1b replicon) of over 10 µM and a CC50 at 72 h [1] of over 50 µM.
